In paper PMC7010297, “How the initiating ribosome copes with ppGpp to translate mRNAs” (PLoS Biology, 2020):
Where “and” joins values, the source holds several entries; their conditions need not be identical. Equal values may be shown once.

Columns and labels:
[1] = biological target: T1, 30S IC (30S-bound IF2, Bpy-tRNAi) (Escherichia coli, UniProt P0A705); test: 30S IC formation measured by MST at increasing concentrations of IF2 with guanosine nucleotides; type: binding; settings: Fig 2A
T1 construct: 6xHis (N); made in house
Source text: (§1) To monitor the interaction of initiator tRNA and 30S ribosomal subunits, we used Microscale Thermophoresis (MST) with a fluorescently labelled initiator tRNA (Bpy-tRNAi) (Fig 1B). MST allows to measure fluorescence in a constrained space. Changes on the readout derive from molecular drifts resulting from small thermal equilibrium perturbations. Upon equilibrium perturbations, the patterns of Bpy-tRNAi migration away from the observation space are related to bound and unbound states (Fig 1B). […] On the contrary, a decrease in thermophoresis indicated the dissociation of Bpy-tRNAi. The relation between fluorescence measured at both equilibriums (Ff to Fi, after and prior to the perturbation, respectively) as a function of ligand concentration allowed to determine dissociation constants of the interaction (Fig 1C).
(§2) Continuous lines indicate nonlinear regression fittings with a quadratic equation. Three measurements were performed; mean and standard deviation are plotted (S1 Data). (B) as (A) to measure the concentration dependence for each tested guanosine nucleotide at constant IF2 (1 μM). […] Continuous lines show best fits using exponential functions. (D) Formation of 70S IC as measured by Bpy-tRNAi accommodation in the P site of the ribosome; 0.1 μM 30S ICs were formed with Bpy-tRNAi and rapidly mixed with 0.3 μM 50S subunits on a stopped-flow apparatus as described in [14]. Colors are as in (C). Continuous lines show best fits using an exponential function for a single reaction step. Each stopped-flow trace results from the mean of 5 to 7 replicates.

[2] = biological target: T2, IF2-bound 30S IC (Escherichia coli, UniProt P0A705); test: 30S IC formation by MST, guanosine nucleotide titration; type: binding; settings: for MST Average / MST Replicates (a.u.): Fig 2B;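 as to MST Average: lower thermophoresis signal means Bpy-tRNAi dissociation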;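 as to MST Replicates (a.u.): lower thermophoresis signal means Bpy-tRNAi dissociation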
T2 construct: 6xHis (N); made in house
Source text: as §1, §2
MST was calculated from the respective fluorescence time dependencies (S3 Fig). […] Symbols as in (B). […] Continuous lines indicate nonlinear regression fittings with quadratic (B and E) or same-site competition (G) functions. Three measurements were performed; mean and standard deviations are plotted (S1 Data).

[3] = biological target: T3, 70S pre-IC (50S joining to 30S IC) (Escherichia coli, UniProt P0A705); test: 70S pre-IC formation by light scattering, stopped-flow; type: biochemical; settings: 30S complexes formed with 0.2 mM nucleotide, mixed with 50S subunits
T3 construct: 6xHis (N); made in house
Protocol: as §2
(§3) (A) Scheme of 70S IC formation. […] Time traces were analyzed by nonlinear regression with exponential terms. […] Formation of 70S IC, as measured by Bpy-tRNAi accommodation in the absence (F) or presence of 200 μM ppGpp (G). Time traces were analyzed by nonlinear regression with one exponential term. […] Continuous lines show best fits using an exponential function for a single reaction step. All time traces are mean values of 5 to 10 replicates. Bar graphs show mean and standard errors (error bars) derived from the nonlinear regression fitting (D,E,H,I) (S1 Data).
(§4) To measure 70S pre-IC formation, a SX-20 stopped-flow instrument (Applied Photophysics, Leatherhead, UK) was set up for LS recording with an excitation wavelength of 430 nm. Scattered light was measured at an angle of 90° without a filter. Pseudo first-order conditions were approximated by using ≥3-fold excess of 50S subunits over 30S ICs; 0.2 μM 30S ICs were rapidly mixed in the instrument with 0.6 μM 50S at 25 °C. Bpy-tRNAi accommodation was measured essentially as described elsewhere. Briefly, 0.2 μM 30S ICs were formed using Bpy-tRNAi and rapidly mixed with 0.6 μM 50S at 25 °C. Fluorescence was excited at 470 nm and measured after a 495-nm longpass filter. Individual traces (6–11 traces) were averaged, and the resulting kinetic curve was approximated by single (F = A0 + A1*exp (-kapp1*t)) or double (F = A0 + A1*exp (-kapp1*t) + A2*exp (-kapp2*t)) exponential fit using Graphpad Prism 6.0 software (GraphPad, San Diego, California).

[4] = biological target: T4, 70S IC (Escherichia coli, UniProt P0A705); test: 70S IC formation by Bpy-tRNAi accommodation, stopped-flow; type: biochemical
T4 construct: 6xHis (N); made in house
Protocol: as §2, §3, §4

T1 sequence (P0A705 whole entry, looked up): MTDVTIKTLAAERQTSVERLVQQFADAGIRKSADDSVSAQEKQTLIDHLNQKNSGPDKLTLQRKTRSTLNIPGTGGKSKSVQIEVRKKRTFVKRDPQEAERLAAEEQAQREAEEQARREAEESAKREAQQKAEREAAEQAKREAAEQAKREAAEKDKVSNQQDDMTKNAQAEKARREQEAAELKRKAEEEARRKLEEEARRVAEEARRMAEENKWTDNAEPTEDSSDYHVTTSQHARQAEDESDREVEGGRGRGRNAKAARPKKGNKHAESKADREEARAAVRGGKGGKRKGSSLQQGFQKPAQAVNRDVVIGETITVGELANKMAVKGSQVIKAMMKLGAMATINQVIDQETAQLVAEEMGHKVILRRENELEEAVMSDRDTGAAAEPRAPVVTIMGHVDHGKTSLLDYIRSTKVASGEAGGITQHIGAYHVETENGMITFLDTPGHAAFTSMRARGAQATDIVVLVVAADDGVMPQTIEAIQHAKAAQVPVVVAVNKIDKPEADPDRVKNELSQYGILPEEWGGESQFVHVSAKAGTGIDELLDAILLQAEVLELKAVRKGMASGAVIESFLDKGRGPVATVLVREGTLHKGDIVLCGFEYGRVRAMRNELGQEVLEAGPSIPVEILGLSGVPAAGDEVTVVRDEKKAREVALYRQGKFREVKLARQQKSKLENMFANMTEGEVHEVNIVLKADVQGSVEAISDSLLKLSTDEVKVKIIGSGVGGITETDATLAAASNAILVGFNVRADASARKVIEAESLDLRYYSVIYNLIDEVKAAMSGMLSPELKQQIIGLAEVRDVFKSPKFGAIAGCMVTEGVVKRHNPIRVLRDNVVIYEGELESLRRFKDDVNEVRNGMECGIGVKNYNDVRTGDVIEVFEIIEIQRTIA
T2 sequence (P0A705 whole entry, looked up): as above
T4 sequence (P0A705 whole entry, looked up): as above
T3 sequence (P0A705 whole entry, looked up): as above

Nc1nc2c(ncn2[C@@H]2O[C@H](COP(=O)(O)OP(=O)(O)OP(=O)(O)O)[C@@H](OP(=O)(O)OP(=O)(O)O)[C@H]2O)c(=O)[nH]1 [pppGpp]
MST Average ([1]; IF2 0.16 µM): 944.96 a.u.
MST Replicates (a.u.) ([1]; IF2 0.16 µM, in the presence of the nucleotide): 945.84 a.u. (2×) and 943.18 a.u.
MST Average ([1]; IF2 0.31 µM): 951.85 a.u.
MST Replicates (a.u.) ([1]; IF2 0.31 µM): 948.28 a.u. and 951.55 a.u. and 955.73 a.u.
MST Average ([1]; IF2 0.63 µM): 965.81 a.u.
MST Replicates (a.u.) ([1]; IF2 0.63 µM): 963.82 a.u. and 965.27 a.u. and 968.34 a.u.
MST Average ([1]; IF2 1.25 µM): 989.55 a.u.
MST Replicates (a.u.) ([1]; IF2 1.25 µM): 985.24 a.u. and 988.50 a.u. and 994.92 a.u.
MST Average ([1]; IF2 2.50 µM): 1020.82 a.u.
MST Replicates (a.u.) ([1]; IF2 2.50 µM): 1014.01 a.u. and 1021.45 a.u. and 1027.00 a.u.
MST Average ([1]; IF2 5.00 µM): 1015.83 a.u.
MST Replicates (a.u.) ([1]; IF2 5.00 µM): 1011.56 a.u. and 1015.17 a.u. and 1020.77 a.u.
MST Average ([2]; nucleotide 0.005 µM): 927.64 a.u.
MST Replicates (a.u.) ([2]; nucleotide 0.005 µM, constant IF2 (1 μM)): 925.66 a.u. and 928.15 a.u. and 929.12 a.u.
MST Average ([2]; nucleotide 0.01 µM): 929.62 a.u.
MST Replicates (a.u.) ([2]; nucleotide 0.01 µM): 928.28 a.u. and 930.44 a.u. and 930.13 a.u.
MST Average ([2]; nucleotide 0.02 µM): 931.44 a.u.
MST Replicates (a.u.) ([2]; nucleotide 0.02 µM): 929.17 a.u. and 931.64 a.u. and 933.52 a.u.
MST Average ([2]; nucleotide 0.04 µM): 936.26 a.u.
MST Replicates (a.u.) ([2]; nucleotide 0.04 µM): 935.68 a.u. and 936.43 a.u. and 936.67 a.u.
MST Average ([2]; nucleotide 0.08 µM): 942.88 a.u.
MST Replicates (a.u.) ([2]; nucleotide 0.08 µM): 942.08 a.u. and 943.53 a.u. and 943.02 a.u.
MST Average ([2]; nucleotide 0.16 µM): 950.27 a.u.
MST Replicates (a.u.) ([2]; nucleotide 0.16 µM): 947.31 a.u. and 952.19 a.u. and 951.31 a.u.
MST Average ([2]; nucleotide 0.31 µM): 960.78 a.u.
MST Replicates (a.u.) ([2]; nucleotide 0.31 µM): 960.77 a.u. and 960.89 a.u. and 960.69 a.u.
MST Average ([2]; nucleotide 0.63 µM): 981.69 a.u.
MST Replicates (a.u.) ([2]; nucleotide 0.63 µM): 982.02 a.u. and 981.68 a.u. and 981.38 a.u.
MST Average ([2]; nucleotide 1.25 µM): 1004.44 a.u.
MST Replicates (a.u.) ([2]; nucleotide 1.25 µM): 1006.47 a.u. and 1004.17 a.u. and 1002.69 a.u.
MST Average ([2]; nucleotide 2.50 µM): 1012.89 a.u.
MST Replicates (a.u.) ([2]; nucleotide 2.50 µM): 1008.41 a.u. and 1015.77 a.u. and 1014.48 a.u.
MST Average ([2]; nucleotide 5.00 µM): 1025.14 a.u.
MST Replicates (a.u.) ([2]; nucleotide 5.00 µM): 1023.12 a.u. and 1027.23 a.u. and 1025.07 a.u.
MST Average ([2]; nucleotide 10.00 µM): 1030.92 a.u.
MST Replicates (a.u.) ([2]; nucleotide 10.00 µM): 1031.01 a.u. and 1031.12 a.u. and 1030.63 a.u.
MST Average ([2]; nucleotide 20.00 µM): 1013.38 a.u.
MST Replicates (a.u.) ([2]; nucleotide 20.00 µM): 1013.59 a.u. and 1013.77 a.u. and 1012.79 a.u.
Kd ([2]; nucleotide titration at constant IF2 (1 μM), read-out: KD for the IF2-bound 30S IC): 500 ± 100 nM
kapp of 70S pre-IC formation (LS) [3]: 2.9 ± 0.3 s^–1
kapp of Bpy-tRNAi accommodation (70S IC formation) ([4]; 30S ICs formed with 0.2 mM nucleotide, mixed with 50S subunits): 1.2 ± 0.2 s^–1
Bpy-tRNAi accommodation slower than with GTP ([4]; compared to GTP-bound IF2): 2 fold
